Read-outs that look alike come from different tables or passages of the source.
Legend:
[1] = system: HTT mRNA; assay: RT-qPCR splicing assay, HTT mRNA canonical (CJ) and alternative (AJ) junction; assay type: cell-based, human; conditions: Homo sapiens; for AC50: HTT alternative junction mRNA, read-out: HTT AJ (increase in AJ mRNA, AC50)
In short: (§1)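 Splice switching quantified in compound-treated A673/K562 cells after 24 h exposure (top dose 10 uM, 3-fold steps, ≤0.25% DMSO), using CJ and AJ qPCR assays run at least in duplicate. RQ derived by 2^(−ΔΔCt), then percentage response.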

[2] = system: Target C; assay: RT-qPCR canonical junction panel assay, Target C mRNA; assay type: cell-based; conditions: Table 4, read-out: Target C IC50 (decrease in CJ mRNA levels)
In short: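 A673 or K562 cells treated with compound; CJ mRNA quantified by junction-spanning RT-qPCR probe after cDNA synthesis, normalised to GAPDH, GUSB or PPIA and DMSO (2^−ΔΔCt), scaled to set ΔCt assay window; IC50 from 4-parameter fit of CJ decrease.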

[3] = system: SMN2 mRNA; assay: RT-qPCR splicing assay, SMN2 mRNA; assay type: cell-based, human; conditions: Homo sapiens, canonical junction qPCR panel, Table 4; read-out: SMN2 IC50 (decrease in CJ mRNA levels)
In short: as §1

[4] = HTT canonical junction mRNA, RT-qPCR, read-out: HTT CJ (decrease in CJ mRNA levels, IC50)
[5] = canonical junction qPCR panel, Table 4, read-out: HTT IC50 (decrease in CJ mRNA levels)

| IC50 [1, 4] [nM] | IC50 [1, 5] [nM] | IC50 [2] [nM] | IC50 [3] [nM] | SMILES | AC50 ([1]; RT-qPCR) [nM] |
| --- | --- | --- | --- | --- | --- |
| 100 to 1000 | 100 to 1000 | 100 to 1000 | < 100 | CN[C@@H]1CCN(c2ccc3nc(-c4cn5cc(C)nc5c(C)c4O)ncc3n2)C1 (single isomer, unassigned) [Compound 504] | 100 to 1000 |
| 100 to 1000 | 100 to 1000 | 1000 to 10000 | < 100 | CNC(=O)c1nc(-c2cc3cn(C)nc3c(C)c2O)nc2ccc(N3CCN[C@@H](C)C3)cc12 (single isomer, unassigned) [Compound 512] | 100 to 1000 |
| < 100 | < 100 | 100 to 1000 | < 100 | CN[C@@H]1CCN(c2ccc3nc(-c4cc5cn(C)nc5c(C)c4O)ncc3c2)C1 (single isomer, unassigned) [Compound 521] | 100 to 1000 |
| < 100 | < 100 | 100 to 1000 | < 100 | CNC(=O)c1nc(-c2cc3cn(C)nc3c(C)c2O)nc2ccc(N3C[C@@H](C)N[C@H](C)C3)cc12 (single isomer, unassigned) [Compound 653] | 100 to 1000 |
| 100 to 1000 | 100 to 1000 | 100 to 1000 | < 100 | Cc1c(O)c(-c2ncc3cc(N4C[C@@H](C)N[C@H](C)C4)ccc3n2)cc2cn(C)nc12 (single isomer, unassigned) [Compound 661] | 1000 to 10000 |
| 100 to 1000 | 100 to 1000 | 1000 to 10000 | < 100 | CNC(=O)c1nc(-c2cc3cn(C)nc3c(F)c2O)nc2ccc(N3C[C@@H](C)N[C@H](C)C3)cc12 (single isomer, unassigned) [Compound 668] | 1000 to 10000 |
| 100 to 1000 | 100 to 1000 | 1000 to 10000 | < 100 | CNC(=O)c1nc(-c2cc3cn(C)nc3c(F)c2O)nc2ccc(N3C[C@H](C)N[C@@H](C)C3)cc12 (single isomer, unassigned) [Compound 669] | 100 to 1000 |
| 100 to 1000 | 100 to 1000 | > 10000 | < 100 | CNC(=O)c1nc(-c2cc3cn(C)nc3cc2O)nc2ccc(N3C[C@H](C)N[C@@H](C)C3)cc12 (single isomer, unassigned) [Compound 676] | 100 to 1000 |
| 100 to 1000 | 100 to 1000 | 1000 to 10000 | < 100 | CNC(=O)c1nc(-c2cc3cn(C)nc3cc2O)nc2ccc(N3C[C@@H](C)N[C@H](C)C3)cc12 (single isomer, unassigned) [Compound 677] | 1000 to 10000 |
| 100 to 1000 | 100 to 1000 | 100 to 1000 |  | Cc1cn2cc(-c3ccc4cc(N5C[C@H](C)N[C@@H](C)C5)cc(F)c4n3)cc(F)c2n1 (single isomer, unassigned) [Compound 705, 2,2,2-trifluoroacetate] | 100 to 1000 |
| < 100 | < 100 | 100 to 1000 | < 100 | Cn1cc2cc(-c3ncc4nc(C5CCNCC5)ccc4n3)c(O)c(F)c2n1 [Compound 155] | < 100 |
| 100 to 1000 | 100 to 1000 | 1000 to 10000 | < 100 | Cc1nc2cc(O)c(-c3ccc4nc(N5CCNC(C(C)(C)C)C5)ccc4n3)cc2o1 (stereo not drawn) [Compound 492] | 100 to 1000 |
| < 100 | < 100 | < 100 | < 100 | Cc1nc2cc(O)c(-c3ccc4nc(N5CC[C@@H](N(C)C(C)(C)C)C5)ccc4n3)cc2o1 [Compound 493] | < 100 |
| 1000 to 10000 | 1000 to 10000 | 1000 to 10000 | 100 to 1000 | Cc1c(O)c(-c2nc(C(=O)N(C)C)c3cc(N4CCNCC4)ccc3n2)cc2cn(C)nc12 [Compound 502, 2-(6-hydroxy-2,7-dimethylindazol-5-yl)-N,N-dimethyl-6-(piperazin-1-yl)quinazoline-4-carboxamide] | 1000 to 10000 |
| < 100 | < 100 | 100 to 1000 | < 100 | CCNC(=O)c1nc(-c2cc3cn(C)nc3c(C)c2O)nc2ccc(N3CCNCC3)cc12 [Compound 503, N-ethyl-2-(6-hydroxy-2,7-dimethylindazol-5-yl)-6-(piperazin-1-yl)quinazoline-4-carboxamide] | < 100 |
| 100 to 1000 | 100 to 1000 | 100 to 1000 | < 100 | CNC(=O)c1nc(-c2cc(F)c3nc(C)cn3c2)nc2ccc(N3CCNCC3)cc12 [Compound 505, 2-{8-fluoro-2-methylimidazo[1,2-a]pyridin-6-yl}-N-methyl-6-(piperazin-1-yl) quinazoline-4-carboxamide] | 100 to 1000 |
| < 100 | < 100 | 100 to 1000 | < 100 | CNC(=O)c1nc(-c2cc3cn(C)nc3c(F)c2O)nc2ccc(N3CCNCC3)cc12 [Compound 506, 2-(7-fluoro-6-hydroxy-2-methylindazol-5-yl)-N-methyl-6-(piperazin-1-yl)quinazoline-4-carboxamide] | 100 to 1000 |
| 100 to 1000 | 100 to 1000 | 1000 to 10000 | < 100 | CNC(=O)c1nc(-c2cc3cn(C)nc3c(C)c2O)nc2ccc(N3CCC(N(C)C)CC3)cc12 [Compound 507, 6-[4-(dimethylamino)piperidin-1-yl]-2-(6-hydroxy-2,7-dimethylindazol-5-yl)-N-methylquinazoline-4-carboxamide] | 1000 to 10000 |
| > 10000 | > 10000 | > 10000 | 100 to 1000 | CNc1nc(-c2cc3cn(C)nc3c(C)c2O)nc2ccc(N3CCNCC3)cc12 [Compound 508, 2,7-dimethyl-5-[4-(methylamino)-6-(piperazin-1-yl)quinazolin-2-yl]indazol-6-ol] | > 10000 |
| > 10000 | > 10000 | > 10000 | 100 to 1000 | Cc1c(O)c(-c2nc(N(C)C)c3cc(N4CCNCC4)ccc3n2)cc2cn(C)nc12 [Compound 509, 5-[4-(dimethylamino)-6-(piperazin-1-yl)quinazolin-2-yl]-2,7-dimethylindazol-6-ol] | > 10000 |
| < 100 | < 100 | 100 to 1000 | < 100 | CNC(=O)c1nc(-c2cc3cn(C)nc3c(C)c2O)nc2ccc(N3CCC(NC)C3)cc12 (stereo not drawn) [Compound 510, 2-(6-hydroxy-2,7-dimethylindazol-5-yl)-N-methyl-6-[3-(methylamino)pyrrolidin-1-yl]quinazoline-4-carboxamide] | 100 to 1000 |
| 100 to 1000 | 100 to 1000 | 1000 to 10000 | < 100 | CNC(=O)c1nc(-c2cc3cn(C)nc3c(C)c2O)nc2ccc(N3C[C@@H](C)N[C@@H](C)C3)cc12 [Compound 511, 6-[(3R,5S)-3,5-dimethylpiperazin-1-yl]-2-(6-hydroxy-2,7-dimethylindazol-5-yl)-N-methylquinazoline-4-carboxamide] | 100 to 1000 |
| 1000 to 10000 | 1000 to 10000 | 1000 to 10000 | < 100 | CC(=O)c1nc(-c2cc3cn(C)nc3c(F)c2O)nc2ccc(N3CCNCC3)cc12 [Compound 513, 1-(2-(7-fluoro-6-hydroxy-2-methyl-2H-indazol-5-yl)-6-(piperazin-1-yl)quinazolin-4-yl)ethan-1-one 2,2,2-trifluoroacetate] | 1000 to 10000 |
| 100 to 1000 | 100 to 1000 | 1000 to 10000 | < 100 | Cn1cc2cc(-c3nc(C#N)c4cc(N5CCNCC5)ccc4n3)c(O)c(F)c2n1 [Compound 514, 2-(7-fluoro-6-hydroxy-2-methylindazol-5-yl)-6-(piperazin-1-yl) quinazoline-4-carbonitrile; trifluoroacetic acid] | 1000 to 10000 |
| < 100 | < 100 | 100 to 1000 | < 100 | Cc1c(O)c(-c2ccc3cc(N4CCNCC4)cc(F)c3n2)cc2cn(C)nc12 [Compound 515, 5-[8-fluoro-6-(piperazin-1-yl)quinolin-2-yl]-2,7-dimethylindazol-6-ol] | < 100 |

| SMILES | IC50 [1, 4] [nM] | IC50 [1, 5] [nM] | IC50 [2] [nM] | IC50 [3] [nM] | AC50 ([1]; RT-qPCR) [nM] |
| --- | --- | --- | --- | --- | --- |
| Cn1cc2cc(-c3ccc4nc([C@@H]5CCNC6(CC6)C5)ccc4n3)c(O)cc2n1 (single isomer, unassigned) [Compound 495] | < 100 | < 100 | 100 to 1000 | < 100 | < 100 |
| Cn1cc2cc(-c3ccc4nc([C@H]5CCNC6(CC6)C5)ccc4n3)c(O)cc2n1 (single isomer, unassigned) [Compound 496] | 100 to 1000 | 100 to 1000 | 100 to 1000 | < 100 | < 100 |
| Cc1nc2cc(O)c(-c3ccc4nc([C@H]5CCNC6(CC6)C5)ccc4n3)cc2o1 (single isomer, unassigned) [Compound 497] | < 100 | < 100 | < 100 | < 100 | < 100 |
| Cc1nc2cc(O)c(-c3ccc4nc([C@@H]5CCNC6(CC6)C5)ccc4n3)cc2o1 (single isomer, unassigned) [Compound 498] | < 100 | < 100 | 100 to 1000 | < 100 | < 100 |
